“And” between values parts separate entries of the source, which are not always exact repeats. Equal values may be shown once. “Also recorded” adds a separate entry of the source. Read-outs that look alike come from different tables or passages of the source.
What was measured:
Experiment in all cases: FRET functional assay (agonist/antagonist) using LGIC-CNiFERs
Assay type in all cases: cell-based
α7-nAChRs = biological target: T1, α7-nAChRs (Homo sapiens, UniProt P36544); settings: for Functional properties at α7-nAChRs (agonist / antagonist): functional screening and characterization; for EC50: in presence of 10 μM PNU-120596, * partial agonist, read-out: Agonist EC50 ± SD, α7
T1 construct: expressed in transfected cells; host or cells: HEKtsA201 cells co-expressing TN-XXL
T1 sequence (P36544 23-502): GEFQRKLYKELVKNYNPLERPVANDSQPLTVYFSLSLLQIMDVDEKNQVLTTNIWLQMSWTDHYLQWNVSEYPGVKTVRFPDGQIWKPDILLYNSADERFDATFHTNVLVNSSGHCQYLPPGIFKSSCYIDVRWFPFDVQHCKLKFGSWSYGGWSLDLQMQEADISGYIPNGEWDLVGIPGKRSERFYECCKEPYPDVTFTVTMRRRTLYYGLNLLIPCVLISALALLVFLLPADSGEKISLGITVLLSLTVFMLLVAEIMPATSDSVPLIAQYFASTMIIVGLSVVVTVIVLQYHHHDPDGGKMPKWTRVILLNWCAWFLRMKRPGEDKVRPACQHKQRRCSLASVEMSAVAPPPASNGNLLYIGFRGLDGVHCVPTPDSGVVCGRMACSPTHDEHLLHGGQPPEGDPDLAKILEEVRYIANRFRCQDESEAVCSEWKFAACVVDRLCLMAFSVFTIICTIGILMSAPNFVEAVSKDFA
Description: (§1) Initially, the agonist properties of tested compounds were assessed directly. […] All α7-nAChR functional assays were performed in the presence of PNU-120596, an α7-nAChR positive allosteric modulator (PAM), to increase signal and delay the sensitization state of α7-nAChRs enabling the measurement of more prolonged FRET signals.^29 Compounds having agonist responses of >0.20 were determined for EC50, and compounds having inhibition fraction of >0.50 were determined for KA.^25 EC50>13.3 μM and KA>10 μM which are a screening concentration for agonist and antagonist, respectively were reported compounds not taken for further in the screening of receptor occupation and responses.
(§2) Agonist and antagonist elicited responses were characterized using the above CNiFER cell expressing Cys-loop ligand-gated ion channel (LGIC) receptors. […] A 96-well black, clear-bottom microplate (Greiner bio-one, Germany) was coated with poly-D-lysine (Sigma-Aldrich, St. Louis, Mo.) 50 μL/well for 30 min and washed out with Phosphate-Buffered Saline (PBS) (Corning, Cellgro, Manassas, Va.) before plating the cells. After plating and incubation at 37° C. for 1 day, the media was replaced with 100 μL of artificial cerebrospinal fluid (aCSF: 121 mM NaCl, 5 mM KCl, 26 mM NaHCO3, 1.2 mM NaH2PO4H2O, 10 mM glucose, 2.4 mM CaCl2, 1.3 mM MgSO4, 5 mM HEPES, pH 7.4) for 4032 and 5HT3A receptors, whereas 10 μM PNU-120596 (Tocris Bioscience, Bristol, UK) in aCSF with 30 min incubation at 37° C. was used for α7-nAChR. The tested compounds were prepared in aCSF for all receptors except α7-nAChR, where 10 μM PNU-120596, a positive allosteric modulator (PAM) was used. The prepared compounds were added in a separate 96-well polypropylene plate (Costar, Corning, N.Y.). Experiments were conducted at 37° C. using 436-nm excitation. Emitted light was collected at 485 nm and 528 nm. Basal fluorescence was recorded for 30 s, followed by addition of 50 μL of ligand (first addition). Measurements were made at 3.84 s intervals for 2 min to measure the agonistic effect. […] Agonist and antagonist properties were sequentially screened at the final concentration of 13.3 and 10 μM, respectively, which differed from the screening concentration from intact cell binding assay (10 μM).

α4β2-nAChRs = biological target: T2, α4β2-nAChRs (Homo sapiens, UniProt P17787+P43681)
T2 construct: expressed in transfected cells; host or cells: HEKtsA201 cells co-expressing TN-XXL
T2 sequence (P43681 29-627 limits assumed): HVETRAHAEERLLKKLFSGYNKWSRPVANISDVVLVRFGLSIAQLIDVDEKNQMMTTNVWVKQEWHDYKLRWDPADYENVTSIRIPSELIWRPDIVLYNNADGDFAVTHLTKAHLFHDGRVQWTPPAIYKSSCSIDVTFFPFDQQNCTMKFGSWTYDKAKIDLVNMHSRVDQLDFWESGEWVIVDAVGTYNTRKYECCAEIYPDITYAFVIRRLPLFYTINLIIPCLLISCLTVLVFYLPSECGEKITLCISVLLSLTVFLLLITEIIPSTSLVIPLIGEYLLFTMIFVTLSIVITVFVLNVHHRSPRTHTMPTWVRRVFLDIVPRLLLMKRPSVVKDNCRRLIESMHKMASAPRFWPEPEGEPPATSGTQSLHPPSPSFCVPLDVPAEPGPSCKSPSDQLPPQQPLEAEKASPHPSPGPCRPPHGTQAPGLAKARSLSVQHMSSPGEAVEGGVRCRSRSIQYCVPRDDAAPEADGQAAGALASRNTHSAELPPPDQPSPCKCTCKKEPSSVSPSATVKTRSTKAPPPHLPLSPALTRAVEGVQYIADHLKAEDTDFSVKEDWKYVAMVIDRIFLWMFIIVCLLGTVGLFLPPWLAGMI
T2 sequence (P17787 26-502): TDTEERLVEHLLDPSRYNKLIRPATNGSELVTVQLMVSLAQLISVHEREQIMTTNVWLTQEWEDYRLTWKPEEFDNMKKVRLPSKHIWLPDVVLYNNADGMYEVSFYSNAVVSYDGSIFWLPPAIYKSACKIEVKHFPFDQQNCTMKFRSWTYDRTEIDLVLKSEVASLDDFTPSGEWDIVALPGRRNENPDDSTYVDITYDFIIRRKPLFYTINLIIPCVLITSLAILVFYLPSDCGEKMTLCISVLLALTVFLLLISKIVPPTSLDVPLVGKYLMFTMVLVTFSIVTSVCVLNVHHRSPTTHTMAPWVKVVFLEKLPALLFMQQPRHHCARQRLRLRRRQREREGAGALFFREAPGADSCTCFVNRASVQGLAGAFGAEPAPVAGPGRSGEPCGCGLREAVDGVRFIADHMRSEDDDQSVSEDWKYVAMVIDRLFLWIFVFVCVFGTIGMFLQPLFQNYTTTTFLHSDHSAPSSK
Description: as §1, §2

5HT3A receptors = biological target: T3, 5HT3A receptors (Mus musculus, UniProt P23979); settings: for Kd: read-out: Antagonist KA ± SD, 5HT3A; for Functional properties at 5HT3A receptors (agonist / antagonist, type): functional screening and characterization
T3 construct: expressed in transfected cells; host or cells: HEK293 cells co-expressing TN-XXL
T3 sequence (P23979 24-489): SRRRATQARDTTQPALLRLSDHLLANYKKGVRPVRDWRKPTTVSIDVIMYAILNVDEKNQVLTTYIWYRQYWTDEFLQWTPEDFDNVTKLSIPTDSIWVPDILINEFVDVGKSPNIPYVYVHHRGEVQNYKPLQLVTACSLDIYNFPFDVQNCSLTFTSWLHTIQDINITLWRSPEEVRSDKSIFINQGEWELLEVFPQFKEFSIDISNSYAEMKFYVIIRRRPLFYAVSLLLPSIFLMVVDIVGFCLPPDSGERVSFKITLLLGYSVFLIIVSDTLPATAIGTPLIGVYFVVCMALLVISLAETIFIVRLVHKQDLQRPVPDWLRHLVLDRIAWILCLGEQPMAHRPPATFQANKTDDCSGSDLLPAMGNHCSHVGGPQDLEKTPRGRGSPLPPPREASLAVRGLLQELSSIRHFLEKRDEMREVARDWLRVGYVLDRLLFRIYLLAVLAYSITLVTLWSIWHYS
Description: as §1, §2

[1] = >10 = did not pass initial screen
[2] = read-out: Antagonist KA ± SD, α4β2
[3] = competitive antagonist (^C), >10 = did not pass initial screen, vs 5-HT
[4] = read-out: Agonist EC50 ± SD, 5HT3A
[5] = Antagonist KA ± SD, α4β2, competitive antagonist (^C), >10 = did not pass initial screen, vs (±)-epibatidine
[6] = non-competitive antagonist (^NC), read-out: Antagonist KA ± SD, α7, non-competitive

## Clc1ccc(-c2cn(CCN3CCCCC3)nn2)cc1 [PPRD13, 1-(2-(4-(4-Chlorophenyl)-1,2,3-triazol-1-yl)ethyl)piperidine]
α7-nAChRs
  Functional properties at α7-nAChRs (agonist / antagonist): partial agonists
α7-nAChRs; [1]
  EC50: 17.6 ± 4.6 µM
α4β2-nAChRs; [2]
  Kd: > 10 µM
5HT3A receptors; [3]
  Kd: > 10 µM
5HT3A receptors; [4]
  EC50: > 10 µM

## COc1ccc(-c2cn(C3CN4CCC3CC4)nn2)cc1 (centres unmarked) [QND3, 3-(4-(4-Methoxyphenyl)-1,2,3-triazol-1-yl)quinuclidine]
α7-nAChRs; [1]
  EC50: 0.1 µM
α4β2-nAChRs; [5]
  Kd: > 10 µM
5HT3A receptors
  EC50: 5.7 ± 1.7 µM
  Functional properties at 5HT3A receptors (agonist / antagonist, type): 5HT3A receptor agonist properties

## c1cc2cc(-c3cn(C4CCCNC4)nn3)ccc2[nH]1 (centres unmarked) [IND10, 5-(1-(Piperidin-3-yl)-1H-1,2,3-triazol-4-yl)-1H-indole]
α7-nAChRs; [1]
  EC50: 0.66 µM
5HT3A receptors
  Functional properties at 5HT3A receptors (agonist / antagonist, type): mix-competitive antagonist

## O=Cc1c[nH]c2ccc(-c3cn(C4CN5CCC4CC5)nn3)cc12 (centres unmarked) [QND5, 5-(1-(Quinuclidin-3-yl)-1,2,3-triazol-4-yl)-indole-3-carbaldehyde]
α7-nAChRs; [1]
  EC50: 0.27 µM
α4β2-nAChRs; [5]
  Kd: > 10 µM
5HT3A receptors; [4]
  EC50: 0.16 ± 0.04 µM

## c1cc2cc(-c3cn(CCCCN4CCOCC4)nn3)ccc2[nH]1 [IND6, 5-(1-(4-(Morpholin-4-yl)butyl)-1H-1,2,3-triazol-4-yl)-1H-indole]
α7-nAChRs; [1]
  EC50: 12.2 µM

## Cc1ccc(-c2cn(CCN3CCCCC3)nn2)cc1 [PPRD4, 1-(2-(4-Tolyl-1,2,3-triazol-1-yl)ethyl)piperidine]
α7-nAChRs; [1]
  EC50: 3.1 ± 0.8 µM
α4β2-nAChRs; [2]
  Kd: > 10 µM
5HT3A receptors; [3]
  Kd: > 10 µM
5HT3A receptors; [4]
  EC50: > 10 µM

## COc1ccc2cc(-c3cn(CCN4CCCCC4)nn3)ccc2c1 [PPRD6, 1-(2-(4-(6-Methoxynaphthalen-2-yl)-1H-1,2,3-triazol-1-yl)ethyl)piperidine]
α7-nAChRs; [1]
  EC50: > 10 µM
α4β2-nAChRs; [2]
  Kd: > 10 µM
5HT3A receptors; [3]
  Kd: > 10 µM
5HT3A receptors; [4]
  EC50: > 10 µM

## c1cc2cc(-c3cn(CCN4CCCCCC4)nn3)ccc2[nH]1 [IND14, 5-(1-(2-(Azepan-1-yl)ethyl)-1H-1,2,3-triazol-4-yl)-1H-indole]
α7-nAChRs; [1]
  EC50: 0.78 µM
5HT3A receptors
  Functional properties at 5HT3A receptors (agonist / antagonist, type): competitive antagonism

## Cc1ccc(-c2cn(C3CN4CCC3CC4)nn2)cc1 (centres unmarked) [QND4, 3-(4-Tolyl-1,2,3-triazol-1-yl)quinuclidine]
α7-nAChRs; [1]
  EC50: 0.2 µM
α4β2-nAChRs; competitive antagonist (^C), >10 = did not pass initial screen, vs (±)-epibatidine, read-out: Antagonist KA ± SD, α4β2
  Kd: >10 µM
5HT3A receptors; [3]
  Antagonist KA ± SD, 5HT3A: 0.50 ± 0.27^C, μM
5HT3A receptors
  Functional properties at 5HT3A receptors (agonist / antagonist, type): antagonists and 5HT3A antagonist properties and mix-competitive antagonist
5HT3A receptors; non-competitive antagonist (^NC)
  Antagonist KA ± SD, 5HT3A, non-competitive: 0.53 ± 0.18^NC μM

## c1ccc(-c2ccc(-c3cn(C4CN5CCC4CC5)nn3)cc2)cc1 (centres unmarked) [QND7, 3-(4-(Biphenyl-4-yl)-1,2,3-triazol-1-yl)quinuclidine]
α7-nAChRs; Antagonist KA ± SD, α7, competitive antagonist (^C), >10 = did not pass initial screen, vs (±)-epibatidine
  Kd: 6.7 ± 2.5 µM
α7-nAChRs
  Functional properties at α7-nAChRs (agonist / antagonist): antagonistic properties; also recorded: weak α7-nAChR antagonist
α7-nAChRs; [6]
  Kd: 26 ± 10 µM
α4β2-nAChRs; [5]
  Kd: > 10 µM
5HT3A receptors; [3]
  Kd: > 10 µM
5HT3A receptors; [4]
  EC50: > 10 µM

## c1cc2cc(-c3cn(CCN4CCNCC4)nn3)ccc2[nH]1 [IND9, 5-(1-(2-(Piperazin-1-yl)ethyl)-1H-1,2,3-triazol-4-yl)-1H-indole]
5HT3A receptors
  Functional properties at 5HT3A receptors (agonist / antagonist, type): mix-competitive antagonist

## COC(=O)c1ccc2[nH]cc(-c3cn(CCN4CCCCC4)nn3)c2c1 [PPRD11, Methyl 3-(1-(2-(piperidin-1-yl)ethyl)-1H-1,2,3-triazol-4-yl)-1H-indole-5-carboxylate]
α7-nAChRs; competitive antagonist (^C), >10 = did not pass initial screen, vs (±)-epibatidine, read-out: Antagonist KA ± SD, α7
  Kd: 6.6 ± 2.2 µM
α7-nAChRs
  Functional properties at α7-nAChRs (agonist / antagonist): weak and non-selective α7-nAChR antagonists
α7-nAChRs; [6]
  Kd: 6.6 ± 1.7 µM
α4β2-nAChRs; functional screening and characterization
  Functional properties at α4β2-nAChRs (agonist / antagonist, type): α4β2-nAChR antagonists; also recorded: competitive antagonist
α4β2-nAChRs; [2]
  Kd: 6.5 ± 1.7 µM
5HT3A receptors; [3]
  Kd: > 10 µM
5HT3A receptors; [4]
  EC50: > 10 µM
